The values that follow come from patent US12543738B2 (Bayer Aktiengesellschaft, priority 2020, dated 2026).

One data set has as its system Septoria tritici. Description: Septoria tritici in vitro cell test. The data set is classed as cell-based. To be noted: Zymoseptoria tritici, 168 h; 20 ppm of active ingredient; liquid culture, 7 days incubation; read-out: efficacy (inhibition of fungal growth). On the procedure:
• Solvent: DMSO • Culture medium: 1 g KH2PO4 (VWR), 1 g K2HPO4 (VWR), 0.5 g Urea (VWR), 3 g KNO3 (Prolabo), 10 g saccharose (VWR), 0.5 g MgSO4, 7H2O (Sigma), 0.07 g CaCl2, 2H2O (Prolabo), 0.2 mg MnSO4, H2O (Sigma), 0.6 mg CuSO4, 5H2O (Sigma), 7.9 mg ZnSO4, 7H2O (Sigma), 0.1 mg H3BO3 (Merck), 0.14 mg NaMoO4, 2H2O (Sigma), 2 mg thiamine (Sigma), 0.1 mg biotine (VWR), 4 mg FeSO4, 7H2O (Sigma), QSP 1 liter • Inoculum: spore suspension Fungicides were solubilized in DMSO and the solution used to prepare the required range of concentrations. […] A spore suspension of S. tritici was prepared and diluted to the desired spore density. Fungicides were evaluated for their ability to inhibit spore germination and mycelium growth in liquid culture assay. The compounds were added in the desired concentration to the culture medium with spores. […] Inhibition of fungal growth was determined by comparing the absorbance values in wells containing the fungicides with the absorbance in control wells without fungicides.

Data set [1] concerns Colletotrichum lindemuthianum. Description: In vivo preventive test on Colletotrichum lindemuthianum (leaf spot on bean). The settings on record: 168 h, 500 ppm of active ingredient, preventive spray on bean, evaluated 7 days after inoculation, read-out: efficacy. On the procedure:
The active ingredients were made soluble and homogenized in a mixture of Dimethyl sulfoxide/Acetone//Tween® 80 and then diluted in water to the desired concentration. The young plants of bean were treated by spraying the active ingredient prepared as described above. Control plants were treated only with an aqueous solution of Acetone/Dimethyl sulfoxide/Tween® 80. After 24 hours, the plants were contaminated by spraying the leaves with an aqueous suspension of Colletotrichum lindemuthianum spores.

Data set [2] is described as follows: Measurement of LogP values by HPLC on reversed phase columns (EEC directive 79/831 Annex V.A8). The data set is classed as physicochemical. The settings on record: method [a]: LC-UV, acidic range, 0.1% formic acid in water and acetonitrile; compounds of formula (I-1), Table 1. On the procedure:
Calibration was done with straight-chain alkan2-ones (with 3 to 16 carbon atoms) with known LogP values (measurement of LogP values using retention times with linear interpolation between successive alkanones). Lambda-max-values were determined using UV-spectra from 200 nm to 400 nm and the peak values of the chromatographic signals

For the next data set, the system named is Sphaerotheca fuliginea. Description: In vivo preventive test on Sphaerotheca fuliginea (powdery mildew on cucurbits). The settings on record: Podosphaera fuliginea, 192 h; 500 ppm of active ingredient; preventive spray on gherkin; evaluated 8 days after inoculation; read-out: efficacy. As to the method: The active ingredients were made soluble and homogenized in a mixture of Dimethyl sulfoxide/Acetone//Tween® 80 and then diluted in water to the desired concentration. The young plants of gherkin were treated by spraying the active ingredient prepared as described above. Control plants were treated only with an aqueous solution of Acetone/Dimethyl sulfoxide/Tween® 80. After 24 hours, the plants were contaminated by spraying the leaves with an aqueous suspension of Sphaerotheca fuliginea spores.

The next data set concerns Botrytis cinerea. Briefly: In vivo preventive test on Botrytis cinerea (grey mould). The settings on record: 500 ppm of active ingredient, preventive spray on gherkin or cabbage, evaluated 4 to 5 days after inoculation, read-out: efficacy. On the procedure: The active ingredients were made soluble and homogenized in a mixture of Dimethyl sulfoxide/Acetone//Tween® 80 and then diluted in water to the desired concentration. The young plants of gherkin or cabbage were treated by spraying the active ingredient prepared as described above. Control plants were treated only with an aqueous solution of Acetone/Dimethyl sulfoxide/Tween® 80. After 24 hours, the plants were contaminated by spraying the leaves with an aqueous suspension of Botrytis cinerea spores.

In a further data set the test system is Pyricularia Oryzae. Description: microbe, parasite or virus in culture. The data set is classed as cell-based. The settings on record: 120 h, read-out: efficacy (inhibition of fungal growth).
The test system of the next data set is Pyrenophora teres. Description: In vivo preventive test on Pyrenophora teres (net blotch on barley). The settings on record: 240 h, 500 ppm of active ingredient, preventive spray on barley, evaluated 10 days after inoculation, read-out: efficacy. As to the method: The active ingredients were made soluble and homogenized in a mixture of Dimethyl sulfoxide/Acetone//Tween® 80 and then diluted in water to the desired concentration. The young plants of barley were treated by spraying the active ingredient prepared as described above. Control plants were treated only with an aqueous solution of Acetone/Dimethyl sulfoxide/Tween® 80. After 24 hours, the plants were contaminated by spraying the leaves with an aqueous suspension of Pyrenophora teres spores.

The test system of another data set is Alternaria brassicae. Briefly: In vivo preventive test on Alternaria brassicae (leaf spot on radish or cabbage). To be noted: 144 h, 500 ppm of active ingredient, preventive spray on radish or cabbage, evaluated 6 days after inoculation, read-out: efficacy. As to the method: The active ingredients were made soluble and homogenized in a mixture of Dimethyl sulfoxide/Acetone//Tween® 80 and then diluted in water to the desired concentration. The young plants of radish or cabbage were treated by spraying the active ingredient prepared as described above. Control plants were treated only with an aqueous solution of Acetone/Dimethyl sulfoxide/Tween® 80. After 24 hours, the plants were contaminated by spraying the leaves with an aqueous suspension of Alternaria brassicae spores.

The subject of a further data set is Alternaria alternata. Description: Alternaria alternata in vitro cell test. It counts as cell-based. To be noted: 120 h, 20 ppm of active ingredient, liquid culture, 5 days incubation, read-out: efficacy (inhibition of fungal growth). On the procedure:
(§1) • Solvent: DMSO • Culture medium: 14.6 g anhydrous D-glucose (VWR), 7.1 g Mycological Peptone (Oxoid), 1.4 g granulated Yeast Extract (Merck), QSP 1 liter • Inoculum: spores suspension Fungicides were solubilized in DMSO and the solution used to prepare the required range of concentrations. […] A spore suspension of A. alternata was prepared and diluted to the desired spore density. Fungicides were evaluated for their ability to inhibit spore germination and mycelium growth in liquid culture assay. The compounds were added in the desired concentration to the culture medium with spores. After 5 days incubation, fungi-toxicity of compounds was determined by spectrometric measurement of mycelium growth. Inhibition of fungal growth was determined by comparing the absorbance values in wells containing the fungicides with the absorbance in control wells without fungicides.

For data set [3], the system named is Colletotrichum lindemuthianum. Briefly: Colletotrichum lindemuthianum in vitro cell test. The data set is classed as cell-based. To be noted: 144 h, 20 ppm of active ingredient, liquid culture, 6 days incubation, read-out: efficacy (inhibition of fungal growth). On the procedure:
as §1, with “of C. lindemuthianum” for “of A. alternata”, “inhibit spores” for “inhibit spore”, “After 6” for “After 5”

A further data set has as its system Fusarium culmorum. Description: Fusarium culmorum in vitro cell test. The data set is classed as cell-based. To be noted: 96 h, 20 ppm of active ingredient, liquid culture, 4 days incubation, read-out: efficacy (inhibition of fungal growth). On the procedure: • Solvent: DMSO • Culture medium: 14.6 g anhydrous D-glucose (VWR), 7.1 g Mycological Peptone (Oxoid), 1.4 g granulated Yeast Extract (Merck), QSP 1 liter • Inoculum: spore suspension • Fungicides were solubilized in DMSO and the solution used to prepare the required range of concentrations. The final concentration of DMSO used in the assay was ≤1%.
A spore suspension of F. culmorum was prepared and diluted to the desired spore density.
Fungicides were evaluated for their ability to inhibit spore germination and mycelium growth in liquid culture assay. The compounds were added in the desired concentration to the culture medium with spores. After 4 days incubation, fungi-toxicity of compounds was determined by spectrometric measurement of mycelium growth. Inhibition of fungal growth was determined by comparing the absorbance values in wells containing the fungicides with the absorbance in control wells without fungicides.

Broadly, the inhibition is the change of the read-out against control, counted positive when it falls. As usually defined, the chromatographic logP is a lipophilicity value derived from retention on a column. Low values mean lower lipophilicity, high ones higher lipophilicity. Consider `Cc1cc(C)cc(CC2CON=C(c3cc(C)nnc3Oc3cccc(C)c3F)N2)c1` (racemic) [Compound I-008, (5RS)-5-(3,5-dimethylbenzyl)-3-[3-(2-fluoro-3-methylphenoxy)-6-methylpyridazin-4-yl]-5,6-dihydro-4H-1,2,4-oxadiazine], for which the inhibition at 20 ppm (in the data set with Septoria tritici; in the data set on Pyricularia Oryzae; with Alternaria alternata; in [3]) was 90 to 100% throughout. Besides, the pest or weed control at 500 ppm (in data set [1]; with Sphaerotheca fuliginea; in the data set with Botrytis cinerea; in the data set on Pyrenophora teres; in the data set on Alternaria brassicae) was 90 to 100% each time. For the same compound, in [2], the chromatographic logP stood at 3.85.
On to `Cc1ccc(C)c(CC2CON=C(c3cc(C)nnc3Oc3cccc(C)c3F)N2)c1` (racemic) [Compound I-013, (5RS)-5-(2,5-dimethylbenzyl)-3-[3-(2-fluoro-3-methylphenoxy)-6-methylpyridazin-4-yl]-5,6-dihydro-4H-1,2,4-oxadiazine], for which the inhibition at 20 ppm with Septoria tritici was 90 to 100%; in the data set on Pyricularia Oryzae it was 80 to 89%; with Alternaria alternata, 90 to 100%; in data set [3], 90 to 100%. For the same compound, the pest or weed control at 500 ppm in [1] was in the range of 90 to 100%; in the data set on Sphaerotheca fuliginea it was 90 to 100%; in the data set with Botrytis cinerea, 90 to 100%; in the data set on Pyrenophora teres it was 80 to 89%; in the data set on Alternaria brassicae, 90 to 100%. In data set [2], the chromatographic logP worked out at 3.69.
For the compound `Cc1ccc(CC2CON=C(c3cc(C)nnc3Oc3cccc(C4(F)CC4)c3)N2)c(C)c1` (racemic) [Compound I-015, (5RS)-5-(2,4-dimethylbenzyl)-3-{3-[3-(1-fluorocyclopropyl)phenoxy]-6-methylpyridazin-4-yl}-5,6-dihydro-4H-1,2,4-oxadiazine], the pest or weed control at 500 ppm (in data set [1]; in the data set on Sphaerotheca fuliginea; with Botrytis cinerea; with Pyrenophora teres; in the data set with Alternaria brassicae) was 90 to 100% each time. The compound further yielded a chromatographic logP in data set [2] of 3.78. The inhibition at 20 ppm fell in the range of 90 to 100% in the data set on Pyricularia Oryzae, 80 to 89% in the data set on Fusarium culmorum, 90 to 100% in the data set with Alternaria alternata and 90 to 100% in [3].
In the case of `C=C(OCC)c1cc(C2=NOCC(Cc3ccc(Cl)cc3Cl)N2)c(Oc2cccc(C3CC3)c2)nn1` (racemic) [Compound I-019, (5RS)-3-[3-(3-cyclopropylphenoxy)-6-(1-ethoxyvinyl)pyridazin-4-yl]-5-(2,4-dichlorobenzyl)-5,6-dihydro-4H-1,2,4-oxadiazine], the pest or weed control at 500 ppm (in data set [1]; in the data set on Sphaerotheca fuliginea; in the data set on Botrytis cinerea; in the data set with Pyrenophora teres; with Alternaria brassicae) was 90 to 100% throughout. Besides, the chromatographic logP in [2] was 5.19. The inhibition at 20 ppm lay within 90 to 100% in the data set on Pyricularia Oryzae, 70 to 79% in the data set on Fusarium culmorum, 90 to 100% in the data set with Alternaria alternata and 90 to 100% in data set [3].
In the case of `C=C(OCC)c1cc(C2=NOCC(Cc3ccc(Cl)cc3Cl)N2)c(Oc2cccc(C3CC3)c2F)nn1` (racemic) [Compound I-020, (5RS)-3-[3-(3-cyclopropyl-2-fluorophenoxy)-6-(1-ethoxyvinyl)pyridazin-4-yl]-5-(2,4-dichlorobenzyl)-5,6-dihydro-4H-1,2,4-oxadiazine], the inhibition at 20 ppm (with Septoria tritici; with Pyricularia Oryzae; in the data set with Alternaria alternata; in data set [3]) was 90 to 100% each time. Moreover, the pest or weed control at 500 ppm (in data set [1]; in the data set with Sphaerotheca fuliginea; with Botrytis cinerea; in the data set on Pyrenophora teres; in the data set with Alternaria brassicae) was 90 to 100% throughout. Further, the chromatographic logP in data set [2] came out at 5.41.
For `Cc1ccc(CC2CON=C(c3cc(C(C)O)nnc3Oc3cccc(C4CC4)c3)N2)c(C)c1` (stereo not drawn) [Compound I-016, 1-{6-(3-cyclopropylphenoxy)-5-[5-(2,4-dimethylbenzyl)-5,6-dihydro-4H-1,2,4-oxadiazin-3-yl]pyridazin-3-yl}ethanol], the inhibition at 20 ppm (in the data set on Septoria tritici; in the data set with Pyricularia Oryzae; in the data set with Alternaria alternata; in data set [3]) was 90 to 100% each time. The pest or weed control at 500 ppm lay in the range of 90 to 100% in data set [1]; 90 to 100% in the data set on Sphaerotheca fuliginea; 90 to 100% in the data set with Botrytis cinerea; 80 to 89% in the data set on Pyrenophora teres; 90 to 100% with Alternaria brassicae. The same compound registered a chromatographic logP in data set [2] of 3.55.
